Like-named read-outs stand apart in the source and are kept apart here.
Tests used:
[1] = molecular target: T1, SsLAP (porcine leucine aminopeptidase) (Sus scrofa, UniProt P28839); test: Inhibition of porcine kidney leucine aminopeptidase, L-Leu-p-nitroanilide hydrolysis, spectrophotometric at 405 nm; assay type: biochemical; conditions: for Ki: Dixon method, substrate L-Leu-p-nitroanilide, 37 °C, pH 8.5, mixture of SR and SS isomers
T1 construct: Leucyl aminopeptidase (SsLAP) was isolated from the porcine kidney; from tissue; host or cells: porcine kidney
T1 sequence (P28839 1-519): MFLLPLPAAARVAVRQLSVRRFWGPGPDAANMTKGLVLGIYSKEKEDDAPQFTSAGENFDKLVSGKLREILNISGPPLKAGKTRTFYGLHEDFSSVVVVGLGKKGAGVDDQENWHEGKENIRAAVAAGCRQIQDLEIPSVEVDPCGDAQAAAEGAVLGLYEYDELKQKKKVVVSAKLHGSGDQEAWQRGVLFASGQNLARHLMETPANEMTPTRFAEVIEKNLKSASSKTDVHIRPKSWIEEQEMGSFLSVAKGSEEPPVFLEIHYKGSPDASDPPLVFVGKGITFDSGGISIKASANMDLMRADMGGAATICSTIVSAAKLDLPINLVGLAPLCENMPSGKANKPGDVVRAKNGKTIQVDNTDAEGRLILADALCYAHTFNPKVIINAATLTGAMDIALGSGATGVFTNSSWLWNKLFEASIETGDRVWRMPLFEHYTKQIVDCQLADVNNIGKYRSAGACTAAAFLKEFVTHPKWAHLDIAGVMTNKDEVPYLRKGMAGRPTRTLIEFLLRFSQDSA
Description: (§1) The inhibition type, mechanism, and inhibition constants (Ki) were determined using graphical methods (see Figure 3 and Figure 4 and Tables S1 and S2). The inhibition type was determined by the Lineweaver-Burk plot based on the results of the inhibitory effect of the compounds on the hydrolytic activity of L-Leu-p-nitroanilide. […] It should be remembered that inhibitor activity was appointed for the racemic mixtures. All investigated compound 1–9 contains only S isomer in the P2 position, whereas in the P1 position, both R and S isomers were possible. Comparing the obtained activities of the investigated compounds 1–9 toward mammalian and plant aminopeptidases allows us to make some general observations. […] Additionally, SsLAP has better tolerance for the residue in the P1 position, whereas HvLAP prefers hPhe residue in this position.
Leucyl aminopeptidase (SsLAP) was isolated from the porcine kidney modified method described by Spackman and Ledeme. […] KM values correlate well with those given in the works 0.77 mM [58, 59]. The purity of the enzyme was confirmed by electrophoresis.
The enzymatic reaction in the presence of SsLAP was carried out at 37 °C in 7.5 mM TEA-HCl buffer (pH 8.5), containing 5 mM NaCl. The progress of the reaction was monitored spectrophotometrically (UV-VIS Spectrophotometer Cintra 303, GBC Scientific Equipment Ltd., Victoria, Australia) at a wavelength of 405 nm against a control sample containing no enzyme. The attempting mixture contained: Solution of the synthetic substrate L-Leu-p-nitroanilide in DMSO (substrate concentration: 1.5 to 0.2 mM—final concentration), 7.5 mM TEA-HCl buffer (pH 8.5), containing 5 mM NaCl, the solution of the potential inhibitor in reaction buffer (concentration of compound depending on the braking force), and enzyme (0.005 mg of the sample).
(§2) Kinetic constants KM, Vmax, and KI and type of inhibition was determined by methods Lineweaver-Burk, Dixon, Hanes-Woolf, and method half-inhibitory concentration. In the calculation, linearization methods used weighted regression. The values (Ki) given in the tables are the values calculated by the Dixon method. The Ki values calculated with all the above-mentioned methods close to each other. All measurements were made in three-fold repetitions. The graphs show the average values of the three measurements and Sb.

[2] = molecular target: HvLAP (aminopeptidase from barley seeds); test: Inhibition of barley seed aminopeptidase, L-Leu-p-nitroanilide hydrolysis, spectrophotometric at 405 nm; assay type: biochemical, Hordeum vulgare; conditions: Dixon method; substrate L-Leu-p-nitroanilide; 37 °C, pH 7.5; mixture of SR and SS isomers
Description: as §1
The aminopeptidase from barley seeds (HvLAP) was isolated and purified according to the procedure described by Oszywa. […] The purity of the enzyme was confirmed by electrophoresis.
The enzymatic reaction in the presence of aminopeptidase from barley seeds (HvLAP) was carried out at 37 °C in 50 mM Tris-HCl buffer (pH 7.5), containing 50 mM NaCl, and 10 mM 2-mercaptoethanol. The progress of the reaction was monitored spectrophotometrically (UV-VIS Spectrophotometer Cintra 303, GBC Scientific Equipment Ltd., Victoria, Australia) at a wavelength of 405 nm against a control sample containing no enzyme. The attempting mixture contained: Solution of the synthetic substrate L-Leu-p-nitroanilide in DMSO (substrate concentration: 1.5 to 0.2 mM—final concentration), 50 mM Tris-HCl buffer (pH 7.5), containing 50 mM NaCl, and 10 mM 2-mercaptoethanol, the solution of the potential inhibitor in reaction buffer (concentration of compound depending on the braking force), and enzyme (0.028 mg of the sample).
as §2

[3] = system: HvLAP (aminopeptidase from barley seeds); parameters: method as in PMID 23434924, doi:10.1007/s11738-015-1789-8; conditions: read-out: KM of the isolated enzyme on the synthetic substrate; cited from earlier work
[4] = molecular target: T1, SsLAP (porcine leucine aminopeptidase); parameters: method as in PMID 2568128, PMID 7126535; conditions: read-out: KM given in the works; cited from earlier work

melting point	Ki [1]	Ki [2]	inhibits SsLAP stronger than HvLAP (selectivity) ([1]; SsLAP over HvLAP)	Km ([1]; SsLAP isolated from porcine kidney, read-out: KM of the isolated enzyme on the synthetic substrate)	SMILES	Km [3]	Km [4]
161 to 164 °C	532 ± 46 µM	38 ± 9 µM	–	–	COC(=O)CCP(=O)(O)C(CCc1ccccc1)NC(=O)[C@@H](N)CCSC (stereo partly drawn) [Compound 1, Methyl 3-[(1-((S)-2-amino-4-(methylthio)butanamido)-3-phenylpropyl)phosphinyl]propanoate]	–	–
183 to 184 °C	1090 ± 73 µM	649 ± 43 µM	–	–	COC(=O)CCP(=O)(O)C(CC(C)C)NC(=O)[C@@H](N)CCSC (stereo partly drawn) [Compound 2, Methyl 3-[(1-((S)-2-amino-4-(methylthio)butanamido)-3-methylbutyl)phosphinyl]propanoate]	–	–
174 to 176 °C	14 ± 1 µM	121 ± 19 µM	–	–	COC(=O)CCP(=O)(O)C(CC(C)C)NC(=O)[C@@H](N)CCO (stereo partly shown) [Compound 3]	–	–
180 to 185 °C	229 ± 40 µM	228 ± 10 µM	–	–	CSCC[C@H](N)C(=O)NC(CCc1ccccc1)P(=O)(O)CCC(=O)O (stereo partly shown) [Compound 4]	–	–
218 to 222 °C	3620 ± 433 µM	1040 ± 102 µM	–	–	CSCC[C@H](N)C(=O)NC(CC(C)C)P(=O)(O)CCC(=O)O (stereo partly drawn) [Compound 5, 3-[(1-((S)-2-Amino-4-(methylthio)butanamido)-3-methylbutyl)phosphinyl]propanoic acid]	–	–
126 to 128 °C	175 ± 3 µM	878 ± 70 µM	–	–	COC(=O)CCP(=O)(O)C(CCc1ccccc1)NC(=O)[C@@H](N)Cc1ccc(-c2ccccc2)cc1 (stereo partly drawn) [Compound 6, Methyl 3-[(1-((S)-3-([1,1′-biphenyl]-4-yl)-2-aminopropanamido)-3-phenylpropyl)phosphinyl]-propanoate]	–	–
150 to 152 °C	130 ± 14 µM	1300 ± 84 µM	~10 times	–	COC(=O)CCP(=O)(O)C(CC(C)C)NC(=O)[C@@H](N)Cc1ccc(-c2ccccc2)cc1 (stereo partly shown) [Compound 7]	–	–
134 to 140 °C (dec.)	95 ± 9 µM	159 ± 25 µM	–	–	COC(=O)CCP(=O)(O)C(CCc1ccccc1)NC(=O)[C@@H](N)Cc1ccc(C(=O)c2ccccc2)cc1 (stereo partly drawn) [Compound 8, Methyl 3-[(1-((S)-2-amino-3-(4-benzoylphenyl)propanamido)-3-phenylpropyl)phosphinyl]-propanoate]	–	–
124 to 126 °C	507 ± 31 µM	797 ± 76 µM	–	–	COC(=O)CCP(=O)(O)C(CC(C)C)NC(=O)[C@@H](N)Cc1ccc(C(=O)c2ccccc2)cc1 (stereo partly drawn) [Compound 9, Methyl 3-[(1-((S)-2-amino-3-(4-benzoylphenyl)propanamido)-3-methylbutyl)phosphinyl]-propanoate]	–	–
–	–	–	–	860 µM	CC(C)C[C@H](N)C(=O)Nc1ccc([N+](=O)[O-])cc1 [L-Leu-pNA, L-leucine-p-nitroanilide]	550 µM	770 µM

— publication PMC8151835, “Phosphinotripeptidic Inhibitors of Leucylaminopeptidases” (International Journal of Molecular Sciences, 2021)
